# Experimental data reported in US4424373A, “Secalonic acids” (priority 1979, dated 1984).
# Assays:
# Sarcina lutea ATCC 9341 = test: MIC against Sarcina lutea ATCC 9341 (Table 6); format: cell-based; details: Micrococcus luteus, ATCC9341
# [1] = test system: Micrococcus flavis ATCC 10240; test: MIC against Micrococcus flavis ATCC 10240 (Table 6); format: cell-based; details: ATCC10240
# Bacilus subtilis CPI 219 = test: MIC against Bacilus subtilis CPI 219 (Table 6); format: cell-based
# [2] = test system: Corynebacterium diphtheriae P.W.8; test: MIC against Corynebacterium diphtheriae P.W.8 (Table 6); format: cell-based
# [3] = test system: Trichophyton mentagrophytes IAM 8051; test: MIC against Trichophyton mentagrophytes IAM 8051 (Table 6); format: cell-based; details: IAM8051
SMILES,solubility in chloroform,MIC (Sarcina lutea ATCC 9341) [µg/mL],MIC [1] [µg/mL],MIC (Bacilus subtilis CPI 219) [µg/mL],MIC [2] [µg/mL],MIC [3] [µg/mL]
"COC(=O)C12Oc3ccc(-c4ccc5c(c4O)C(=O)C4=C(O)CC(C)C(O)C4(C(=O)OC)O5)c(O)c3C(=O)C1=C(O)CC(C)C2O (single isomer, unassigned) [Compound I, secalonic acid A having a 2,2'-linkage, reference compound]",insoluble,–,–,–,–,–
"COC(=O)C12Oc3ccc(-c4ccc5c(c4O)C(=O)C4=C(O)CC(C)C(O)C4(C(=O)OC)O5)c(O)c3C(=O)C1=C(O)CC(C)C2O (centres unmarked) [2,2'-SD, secalonic acid D having a 2,2'-linkage, reference compound]",–,> 100,100,> 100,50,12.5
"COC(=O)C12Oc3ccc(-c4ccc(O)c5c4OC4(C(=O)OC)C(=C(O)CC(C)C4O)C5=O)c(O)c3C(=O)C1=C(O)CC(C)C2O (centres unmarked) [2,4'-SD, secalonic acid D having a 2,4'-linkage]",–,12.5,25,50,12.5,3.1
"COC(=O)C12Oc3c(-c4ccc(O)c5c4OC4(C(=O)OC)C(=C(O)CC(C)C4O)C5=O)ccc(O)c3C(=O)C1=C(O)CC(C)C2O (centres unmarked) [4,4'-SD, secalonic acid D having a 4,4'-linkage]",–,3.1,12.5,12.5,6.3,1.6
"COC(=O)[C@]12Oc3ccc(-c4ccc5c(c4O)C(=O)C4=C(O)C[C@@H](C)[C@H](OC=O)[C@@]4(C(=O)OC)O5)c(O)c3C(=O)C1=C(O)C[C@@H](C)[C@@H]2OC=O [diformyl derivative of Compound I, diformyl derivative of secalonic acid A having a 2,2'-linkage]",soluble,–,–,–,–,–
